Entries after “also recorded” stand apart in the source; their conditions may differ. Read-outs that look alike come from different tables or passages of the source.
Key:
[1] = system: global cerebral ischemia in gerbils; conditions: in vivo; cited from earlier work
[2] = system: rat model of ischemic stroke; conditions: given 30 min after initiation of permanent MCAO; cited from earlier work
NCCa-ATP channel [3] = biological target: T1, NCCa-ATP channel (Rattus norvegicus, UniProt Q09429+Q9ESQ5); conditions: cited from earlier work; for channel opening in the presence of ATP: K+ channel openers
T1 construct: endogenous in cells; host or cells: freshly isolated native reactive astrocytes from the hypoxic gliotic capsule
T1 sequence (Q09429 whole entry): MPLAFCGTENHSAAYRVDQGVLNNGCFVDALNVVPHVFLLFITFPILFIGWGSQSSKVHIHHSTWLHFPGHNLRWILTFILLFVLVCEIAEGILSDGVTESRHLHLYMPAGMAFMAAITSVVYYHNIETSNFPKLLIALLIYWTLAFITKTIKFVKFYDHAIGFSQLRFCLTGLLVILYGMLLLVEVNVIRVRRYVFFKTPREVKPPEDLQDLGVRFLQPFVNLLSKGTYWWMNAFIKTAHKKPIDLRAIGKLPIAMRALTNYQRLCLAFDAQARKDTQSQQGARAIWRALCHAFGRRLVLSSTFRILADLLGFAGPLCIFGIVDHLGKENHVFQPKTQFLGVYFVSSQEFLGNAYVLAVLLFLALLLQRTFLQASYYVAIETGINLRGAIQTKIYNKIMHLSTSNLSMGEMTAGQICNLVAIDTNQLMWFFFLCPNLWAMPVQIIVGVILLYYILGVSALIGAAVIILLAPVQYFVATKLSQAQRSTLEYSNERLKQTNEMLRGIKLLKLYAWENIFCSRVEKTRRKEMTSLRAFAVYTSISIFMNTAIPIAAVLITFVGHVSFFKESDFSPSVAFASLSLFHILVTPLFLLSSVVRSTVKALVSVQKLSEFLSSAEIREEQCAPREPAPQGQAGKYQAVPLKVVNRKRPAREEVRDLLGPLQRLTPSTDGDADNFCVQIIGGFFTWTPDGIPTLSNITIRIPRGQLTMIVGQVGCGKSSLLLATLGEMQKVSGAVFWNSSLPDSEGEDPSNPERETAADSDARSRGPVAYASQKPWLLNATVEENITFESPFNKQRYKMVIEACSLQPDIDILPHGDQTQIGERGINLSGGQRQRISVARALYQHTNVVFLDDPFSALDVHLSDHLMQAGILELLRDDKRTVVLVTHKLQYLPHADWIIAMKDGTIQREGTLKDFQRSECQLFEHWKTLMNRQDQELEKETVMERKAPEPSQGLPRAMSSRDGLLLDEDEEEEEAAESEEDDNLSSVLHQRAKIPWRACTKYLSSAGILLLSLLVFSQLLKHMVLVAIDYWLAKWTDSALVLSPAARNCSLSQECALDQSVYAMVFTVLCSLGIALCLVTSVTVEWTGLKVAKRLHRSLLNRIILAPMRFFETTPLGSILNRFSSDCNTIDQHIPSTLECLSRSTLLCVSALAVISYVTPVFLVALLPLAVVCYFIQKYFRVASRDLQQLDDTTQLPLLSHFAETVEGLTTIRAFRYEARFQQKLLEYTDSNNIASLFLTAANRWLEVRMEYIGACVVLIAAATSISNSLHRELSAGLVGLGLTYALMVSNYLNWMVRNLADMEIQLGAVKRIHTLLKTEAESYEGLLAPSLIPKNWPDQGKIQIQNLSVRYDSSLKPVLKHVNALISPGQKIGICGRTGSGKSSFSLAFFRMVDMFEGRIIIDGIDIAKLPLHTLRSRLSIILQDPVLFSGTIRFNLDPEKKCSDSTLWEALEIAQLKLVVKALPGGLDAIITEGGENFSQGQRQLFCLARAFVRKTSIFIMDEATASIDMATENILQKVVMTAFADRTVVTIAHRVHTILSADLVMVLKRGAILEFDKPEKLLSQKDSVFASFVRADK
T1 sequence (Q9ESQ5 whole entry): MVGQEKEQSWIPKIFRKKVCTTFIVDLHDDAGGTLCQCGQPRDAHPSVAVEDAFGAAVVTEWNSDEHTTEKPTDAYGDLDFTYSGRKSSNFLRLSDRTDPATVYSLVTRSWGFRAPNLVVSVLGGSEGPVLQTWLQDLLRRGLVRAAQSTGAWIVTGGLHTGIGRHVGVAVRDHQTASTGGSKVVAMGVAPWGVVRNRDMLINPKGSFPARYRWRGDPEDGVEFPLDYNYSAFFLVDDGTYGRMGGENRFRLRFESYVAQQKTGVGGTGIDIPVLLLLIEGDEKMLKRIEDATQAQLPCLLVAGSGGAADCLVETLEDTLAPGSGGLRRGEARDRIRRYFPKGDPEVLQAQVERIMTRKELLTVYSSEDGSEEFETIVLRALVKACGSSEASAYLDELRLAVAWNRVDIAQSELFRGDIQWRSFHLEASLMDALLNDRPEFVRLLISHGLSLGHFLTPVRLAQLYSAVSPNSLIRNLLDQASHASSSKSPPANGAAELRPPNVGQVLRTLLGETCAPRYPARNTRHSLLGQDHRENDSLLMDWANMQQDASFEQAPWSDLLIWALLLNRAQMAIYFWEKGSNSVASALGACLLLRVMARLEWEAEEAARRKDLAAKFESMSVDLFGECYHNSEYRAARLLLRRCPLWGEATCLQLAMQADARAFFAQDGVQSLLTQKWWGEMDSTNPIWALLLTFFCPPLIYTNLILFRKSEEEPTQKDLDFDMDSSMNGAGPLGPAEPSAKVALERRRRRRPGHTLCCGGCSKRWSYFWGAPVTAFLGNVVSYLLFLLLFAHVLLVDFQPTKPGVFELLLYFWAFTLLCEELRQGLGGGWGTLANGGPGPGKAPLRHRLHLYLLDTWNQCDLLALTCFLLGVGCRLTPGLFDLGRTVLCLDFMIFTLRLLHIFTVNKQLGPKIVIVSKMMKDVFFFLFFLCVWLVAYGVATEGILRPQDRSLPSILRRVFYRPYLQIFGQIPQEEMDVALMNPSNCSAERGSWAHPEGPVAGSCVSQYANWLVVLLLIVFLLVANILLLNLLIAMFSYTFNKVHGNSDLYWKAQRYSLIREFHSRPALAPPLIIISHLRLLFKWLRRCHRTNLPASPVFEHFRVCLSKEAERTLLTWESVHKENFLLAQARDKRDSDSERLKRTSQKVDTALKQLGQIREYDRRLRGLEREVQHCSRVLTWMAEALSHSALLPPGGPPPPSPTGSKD

reactive astrocytes = conditions: without ATP depletion; cited from earlier work
NCCa-ATP channel [4] = biological target: T1, NCCa-ATP channel; test: Patch clamp of NCCa-ATP channel in freshly isolated native reactive astrocytes; format: cell-based; conditions: for EC50: read-out: [ATP]1 EC50
Protocol: (§1) PATCH CLAMP. […] In general, recordings are carried out using a Cs^+ rich solution, to preclude recording activity from any K^+ channel including KATP channel.

TRPM4 channel = conditions: cited from earlier work
NCCa-ATP channel [5] = biological target: T2, NCCa-ATP channel (Mus musculus, UniProt B2RUS7+Q7TN37); test: Patch clamp of bEnd.3 cells exposed to TNFα, ATP depleted with Na azide plus 2-DG; format: cell-based, murine; conditions: TNFα-treated bEnd.3 cells; for block of single channel activity (inside-out patch): Cs+ as the only permeant cation
T2 construct: exposure to TNFα causes expression of a new channel that is not present before exposure to TNFα; host or cells: bEnd.3 cells exposed to TNFα
Protocol: (§2) (iii) Pharmacological block of SUR1 and TRPM4/patch clamp.
(§3) Patch clamp was performed using a nystatin-perforated patch technique to maintain the metabolic integrity of the cells.
(§4) Single channel recordings were performed using inside-out patches, with Cs^+ as the only permeant cation.
(§5) Apart from direct application of PIP2 (FIG. 24A), PIP2 levels can be augmented by inhibiting spontaneously active PLC.
as §1

[6] = system: rat model of contusion SCI; test: Rat model of unilateral cervical spinal cord injury (SCI); format: in vivo; conditions: for neurobehavioral function (inclined plane, rearing) / progressive hemorrhagic necrosis / progressive hemorrhage: post-SCI
TRPM2 = biological target: T3, TRPM2 (Homo sapiens, UniProt O94759); conditions: activated by extracellular H2O2; cited from earlier work
T3 construct: host or cells: Chinese hamster ovary cells
T3 sequence (O94759 whole entry): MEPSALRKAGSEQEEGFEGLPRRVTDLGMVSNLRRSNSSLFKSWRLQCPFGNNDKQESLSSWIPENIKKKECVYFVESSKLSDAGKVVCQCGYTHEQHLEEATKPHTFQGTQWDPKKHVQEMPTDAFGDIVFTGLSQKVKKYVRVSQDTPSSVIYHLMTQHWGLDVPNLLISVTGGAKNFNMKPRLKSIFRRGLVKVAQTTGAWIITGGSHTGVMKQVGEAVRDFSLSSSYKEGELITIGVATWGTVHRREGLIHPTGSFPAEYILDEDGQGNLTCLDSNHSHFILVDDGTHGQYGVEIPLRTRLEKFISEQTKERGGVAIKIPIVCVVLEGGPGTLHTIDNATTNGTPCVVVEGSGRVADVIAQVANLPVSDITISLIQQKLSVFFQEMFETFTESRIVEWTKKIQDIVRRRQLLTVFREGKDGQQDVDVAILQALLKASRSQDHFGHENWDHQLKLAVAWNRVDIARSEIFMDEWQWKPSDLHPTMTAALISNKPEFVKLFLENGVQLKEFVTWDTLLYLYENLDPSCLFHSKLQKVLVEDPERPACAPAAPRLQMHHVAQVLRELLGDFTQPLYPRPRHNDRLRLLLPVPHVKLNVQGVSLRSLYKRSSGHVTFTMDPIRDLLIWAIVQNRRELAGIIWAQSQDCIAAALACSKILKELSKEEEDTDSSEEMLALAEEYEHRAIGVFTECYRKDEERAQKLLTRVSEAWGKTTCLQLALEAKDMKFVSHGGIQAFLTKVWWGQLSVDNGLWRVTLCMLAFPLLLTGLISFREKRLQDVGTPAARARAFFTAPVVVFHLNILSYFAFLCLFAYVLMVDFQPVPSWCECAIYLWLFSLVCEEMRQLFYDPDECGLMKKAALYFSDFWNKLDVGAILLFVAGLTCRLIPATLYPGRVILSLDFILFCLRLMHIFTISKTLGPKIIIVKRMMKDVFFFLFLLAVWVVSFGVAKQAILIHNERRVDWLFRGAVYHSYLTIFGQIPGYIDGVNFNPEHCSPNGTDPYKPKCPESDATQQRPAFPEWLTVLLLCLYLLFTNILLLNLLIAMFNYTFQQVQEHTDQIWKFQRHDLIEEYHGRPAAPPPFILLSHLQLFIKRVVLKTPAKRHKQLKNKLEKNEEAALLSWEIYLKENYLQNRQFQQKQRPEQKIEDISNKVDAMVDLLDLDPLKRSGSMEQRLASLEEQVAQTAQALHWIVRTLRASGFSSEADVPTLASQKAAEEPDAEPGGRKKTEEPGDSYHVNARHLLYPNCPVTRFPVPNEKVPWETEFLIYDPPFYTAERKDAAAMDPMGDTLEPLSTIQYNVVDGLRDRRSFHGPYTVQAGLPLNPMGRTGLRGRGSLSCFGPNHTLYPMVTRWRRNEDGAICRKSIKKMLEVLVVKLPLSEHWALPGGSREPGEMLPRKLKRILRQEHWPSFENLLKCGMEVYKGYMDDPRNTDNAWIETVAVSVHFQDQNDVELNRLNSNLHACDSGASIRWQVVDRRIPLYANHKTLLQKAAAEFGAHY

[7] = system: isolated retina of chick embryo; conditions: cited from earlier work
[8] = system: permanent middle cerebral artery occlusion (MCAO) model; conditions: cited from earlier work
temporary MCAO model = conditions: cited from earlier work
NCCa-ATP channel [9] = test: Patch clamp of bEnd.3 cells exposed to TNFα, ATP depleted with Na azide plus 2-DG; format: cell-based, murine
Protocol: as §2, §3, §4, §5, §1

[10] = system: rat model of contusion SCI; conditions: as reported (Simard et al., 2007); cited from earlier work
[11] = biological target: receptor-mediated Ca^2+ entry; conditions: cited from earlier work
human TRP3 = biological target: T4, human TRP3 (Homo sapiens, UniProt Q13507); conditions: high concentrations; cited from earlier work
T4 construct: expressed in transfected cells
T4 sequence (Q13507 1-848 isoform Q13507-3): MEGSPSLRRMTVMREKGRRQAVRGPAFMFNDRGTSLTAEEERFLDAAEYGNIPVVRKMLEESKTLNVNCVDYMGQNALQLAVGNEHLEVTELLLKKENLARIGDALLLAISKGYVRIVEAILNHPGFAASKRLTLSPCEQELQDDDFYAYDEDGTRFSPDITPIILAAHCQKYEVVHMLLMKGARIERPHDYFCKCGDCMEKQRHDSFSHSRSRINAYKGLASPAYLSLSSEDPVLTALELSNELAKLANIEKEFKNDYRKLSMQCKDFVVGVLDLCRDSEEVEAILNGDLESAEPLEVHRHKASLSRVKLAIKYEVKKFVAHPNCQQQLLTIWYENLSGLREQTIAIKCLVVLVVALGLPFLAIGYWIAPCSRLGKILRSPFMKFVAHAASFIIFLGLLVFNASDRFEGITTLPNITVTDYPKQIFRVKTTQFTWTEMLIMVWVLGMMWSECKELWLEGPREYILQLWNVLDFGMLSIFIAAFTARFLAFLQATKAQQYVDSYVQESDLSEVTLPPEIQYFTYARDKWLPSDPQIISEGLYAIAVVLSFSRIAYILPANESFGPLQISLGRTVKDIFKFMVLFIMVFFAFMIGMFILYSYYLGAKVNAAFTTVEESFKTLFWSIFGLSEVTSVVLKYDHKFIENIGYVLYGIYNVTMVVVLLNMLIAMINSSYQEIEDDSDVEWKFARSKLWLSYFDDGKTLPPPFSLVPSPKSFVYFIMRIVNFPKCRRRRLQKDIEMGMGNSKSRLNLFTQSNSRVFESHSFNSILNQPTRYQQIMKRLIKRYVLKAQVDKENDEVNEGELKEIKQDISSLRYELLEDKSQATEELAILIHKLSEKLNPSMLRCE

[12] = system: endothelial cells of the BBB; conditions: cited from earlier work
[13] = system: rodent model of transient focal ischemia; conditions: pre- or post-ischemic administration; cited from earlier work
[14] = Membrane Preparation derived from freshly isolated native reactive astrocytes
[15] = after 6 h of vascular occlusion

Compound: Oc1cc2c(cc1O)CN(C(=S)NCCc1ccc(Cl)cc1)CCC2 [capsazepine]
- effect on rimonabant-induced and capsaicin-induced neuroprotective effects [1]: reversed

Compound: Cc1c(C(=O)NN2CCCCC2)nn(-c2ccc(Cl)cc2Cl)c1-c1ccc(Cl)cc1 [rimonabant]
- reduction of infarct volume [2]: ~40%
- electroencephalographic changes, hyperlocomotion and memory impairment induced by global ischemia [1]: antagonize
- survival of pyramidal cells in the CA1 subfield of the hippocampus [1]: progressive survival

Compound: CC(N/C(=N\C#N)Nc1ccncc1)C(C)(C)C (centres unmarked) [pinacidil]
- channel opening in the presence of ATP (NCCa-ATP channel [3]): not

Compound: CC1=NS(=O)(=O)c2cc(Cl)ccc2N1 [diazoxide]
- channel opening in the presence of ATP (NCCa-ATP channel [3]): increased
- bleb formation (reactive astrocytes): reproduced

Compound: [Ca+2] [Ca^2+]
- Activation [Ca^2+] (NCCa-ATP channel [4]; [14]): <1.0 µM
- Activation [Ca^2+] (NCCa-ATP channel [4]; Reactive Astrocytes): <1.0 µM
- EC50 (NCCa-ATP channel [3]; SUR1-regulated NCCa-ATP, read-out: Ca^2+ activation (EC50)): 120 to 1500 nM
- EC50 (TRPM4 channel; read-out: Ca^2+ activation (EC50)): 1300 nM

Compound: O=C(O)c1ccccc1Nc1cccc(C(F)(F)F)c1 [flufenamic acid]
- block of current activated by ATP depletion (whole cell) (NCCa-ATP channel [5]): blocked; also recorded: also blocks this current
- block of current activated by ATP depletion (whole cell) (NCCa-ATP channel [5]; 100 μM flufenamic acid): blocked
- block of single channel activity (inside-out patch) (NCCa-ATP channel [5]): blocked
- block of current activated by ATP depletion (whole cell) (NCCa-ATP channel [5]; listed as FFA): blocked
- amount of blood in cord homogenates ([6]; 24-hr post-SCI, post-treatment): significant decrease in blood
- hemorrhage in cords (surface and sections) ([6]; 24 h post-SCI): less hemorrhage
- neurobehavioral function (inclined plane, rearing) [6]: improves neurological function; also recorded: improved
- progressive hemorrhagic necrosis / progressive hemorrhage [6]: reduces progressive hemorrhagic necrosis; also recorded: blocked
- neurobehavioral function (inclined plane, rearing) ([6]; listed as FFA): improve neurobehavioral function; also recorded: significantly better performance than controls
- progressive hemorrhagic necrosis / progressive hemorrhage ([6]; listed as FFA): prevented
- capillary integrity (vimentin immunolabeling) ([6]; region of injury post-SCI, listed as FFA): elongated capillaries; also recorded: elongated and more intact
- inhibition of TRPM2 (TRPM2): inhibits
- protection of the retina against ischemic or excitotoxic insult [7]: protected

Compound: COc1cc2c(cc1OC)C(C(C(=O)N(CCc1ccc(OC)c(OC)c1OC)CCc1ccc(OC)c(OC)c1OC)c1ccccc1)=NCC2 (racemic) [pinokalant, (R,S)-(3,4-dihydro-6,7-dimethoxy-isoquinoline-1-yl)-2-phenyl-N,N-di[2-(2,3,4-trimethoxyphenyl)ethyl]-acetamide]
- blood flow [8, 15]: significantly higher
- volume of ATP-depleted and morphologically injured tissue (infarct core), smaller [8, 15]: 60-70%
- decrease of ADC lesion volume ([8]; during the initial 6 h of vascular occlusion): approximately 20%
- size of ischemic penumbra ([8]; volume of severely acidic tissue): does not reduce
- DWI-derived infarct volume (temporary MCAO model; 4 h after MCAO): significantly smaller
- neurological scores (temporary MCAO model; 24 h): significantly better
- TTC-derived infarct volume (temporary MCAO model; postmortem): significantly attenuated
- size of the ischemic core (temporary MCAO model; rat, in vivo): significantly smaller

Compound: CC1(C)Oc2ccc(C#N)cc2C(N2CCCC2=O)C1O (centres unmarked) [cromakalin]
- channel opening in the presence of ATP (NCCa-ATP channel [3]): not

Compound: COc1ccc2c(c1)CC[C@@H]1[C@@H]2CC[C@]2(C)[C@@H](NCCCCCCN3C(=O)C=CC3=O)CC[C@@H]12 [U73122]
- channel activation by inhibiting phospholipase C (whole cell) (NCCa-ATP channel [9]; TNFα-stimulated bEnd.3 cells): activated an ohmic current; also recorded: channel activation
- channel activation by inhibiting phospholipase C (whole cell) (NCCa-ATP channel [9]; control bEnd.3 cells): without effect

Compound: PIP2
- PIP2 activation (NCCa-ATP channel [4]; SUR1-regulated NCCa-ATP, unpublished observations): yes*
- channel activity after addition of PIP2 (NCCa-ATP channel [4]; inside-out patch, high concentration of ATP (10 mM) on the cytoplasmic side): robust channel activation; also recorded: release of inhibition
- PIP2 activation (TRPM4 channel): yes

Compound: CCCCNC(=O)NS(=O)(=O)c1ccc(C)cc1 [tolbutamide]
- EC50 (NCCa-ATP channel [3]; pH 7.4, read-out: block of NCCa-ATP channel opening (EC50)): 16100 nM

Compound: COc1cc(CNC(=O)CCCC/C=C/C(C)C)ccc1O [capsaicin]
- electroencephalographic changes, hyperlocomotion and memory impairment induced by global ischemia [1]: antagonize
- survival of pyramidal cells in the CA1 subfield of the hippocampus [1]: progressive survival

Compound: CCOc1cc(CC(=O)N[C@@H](CC(C)C)c2ccccc2N2CCCCC2)ccc1C(=O)O [repaglinide]
- neurological function [10]: improves neurological function
- progressive hemorrhagic necrosis [10]: reduces progressive hemorrhagic necrosis

Compound: COc1ccc(CCCOC(Cn2ccnc2)c2ccc(OC)cc2)cc1.Cl (stereo not drawn) [SKF 96365, 1-(beta[3-(4-methoxy-phenyl)propoxy]-4-methoxyphenethyl)-1H-imidazole hydrochloride]
- IC50 [11]: ~10000 nM
- increased Ca^2+ entry in TRP3-expressing cells (human TRP3): blocked
- expression of the tight junction protein occludin ([12]; after hypoxic/aglycemic stress): increased
- hypoxia-induced BBB disruption ([12]; normoglycemia): protective

Compound: Cc1cccc(Nc2ccccc2C(=O)O)c1C [mefenamic acid]
- protection of the retina against ischemic or excitotoxic insult [7]: protected
- neuroprotection (necrosis in cortex and subcortical structures) [13]: no neuroprotection

Compound: Nc1ncnc2c1ncn2[C@@H]1O[C@H](COP(=O)(O)O)[C@@H](O)[C@H]1O [AMP]
- ADP AMP channel effect (NCCa-ATP channel [4]; [14]): No channel
- ADP AMP channel effect (NCCa-ATP channel [4]; Reactive Astrocytes): No channel
- ADP, AMP block (NCCa-ATP channel [3]; SUR1-regulated NCCa-ATP): no
- effect of ADP or AMP on channel opening (NCCa-ATP channel [3]): unaffected
- ADP, AMP block (TRPM4 channel): yes

Compound: Cc1ccc(Cl)c(Nc2ccccc2C(=O)O)c1Cl [meclofenamic acid]
- protection of the retina against ischemic or excitotoxic insult [7]: protected

Compound: S=C(S)N1CCCC1 [PDTC, pyrrolidine dithiocarbamate]
- TRPM4 expression in cord (immunolabeling) ([6]; 24 h post-SCI): significantly decreased; also recorded: reduces TRPM4 expression
- neurobehavioral function (inclined plane, rearing) [6]: improved functional outcome

Compound: Nc1ncnc2c1ncn2[C@@H]1O[C@H](COP(=O)(O)OP(=O)(O)O)[C@@H](O)[C@H]1O [ADP]
- ADP AMP channel effect (NCCa-ATP channel [4]; [14]): No channel
- ADP AMP channel effect (NCCa-ATP channel [4]; Reactive Astrocytes): No channel
- ADP, AMP block (NCCa-ATP channel [3]; SUR1-regulated NCCa-ATP): no
- effect of ADP or AMP on channel opening (NCCa-ATP channel [3]): unaffected
- ADP, AMP block (TRPM4 channel): yes

Compound: Nc1ncnc2c1ncn2[C@@H]1O[C@H](COP(=O)(O)OP(=O)(O)OP(=O)(O)O)[C@@H](O)[C@H]1O [ATP]
- EC50 (NCCa-ATP channel [4]; [14]): 790 nM
- EC50 (NCCa-ATP channel [4]; Reactive Astrocytes): 790 nM
- block of single channel activity (inside-out patch) (NCCa-ATP channel [5]): reversibly blocked
- EC50 (NCCa-ATP channel [3]; SUR1-regulated NCCa-ATP, read-out: ATP block (EC50)): 800 nM
- EC50 (NCCa-ATP channel [3]; read-out: Channel opening blocked by ATP (EC50)): 790 nM
- EC50 (TRPM4 channel; read-out: ATP block (EC50)): 130 to 1700 nM

From patent publication US20190111137A1, “METHODS FOR ANTAGONISTS OF A NON-SELECTIVE CATION CHANNEL IN NEURAL CELLS” (University of Maryland, Baltimore, priority 2007, published 2019)
